Source: patent US20220315571A1 (Cytokinetics, Inc., priority 2019, published 2022)
Like-named read-outs stand apart in the source and are kept apart here. Values belong to the molecule of their own block, whether it stands above or below them.

How the values were obtained:
[1] = Competitive slurry experiments between Form I and Form IV; type: physicochemical
Description: The results of the competitive slurry experiments are provided below in Table 7.

[2] = Dynamic Vapor Sorption (DVS); type: physicochemical; settings: 5-90% relative humidity (RH) range, 25° C.
Method: DVS analyses were carried out TA Instruments Q5000 Dynamic Vapor Sorption analyzer. The instrument was calibrated with standard weights and a sodium bromide standard for humidity. Samples were analyzed at 25° C. with a maximum equilibration time of 60 minutes in 10% relative humidity (RH) steps from 5 to 95% RH (adsorption cycle) and from 95 to 5% RH (desorption cycle).
Polymorphic Form I of (R)-N-(5-(5-ethyl-1,2,4-oxadiazol-3-yl)-2,3-dihydro-1H-inden-1-yl)-1-methyl-1H-pyrazole-4-carboxamide was analyzed by XRPD, DSC, TGA, and DVS. […] As shown in the TGA graph, a weight loss of 0.2% below 200° C., was observed.

[3] = Polymorph screening, heat/humidity exposure of Form I (XRPD); type: physicochemical
Method: Polymorphic Form I of (R)-N-(5-(5-ethyl-1,2,4-oxadiazol-3-yl)-2,3-dihydro-1H-inden-1-yl)-1-methyl-1H-pyrazole-4-carboxamide was mixed with various solvents under various conditions. Samples generated were analyzed by XRPD.

myocytes = test: Myocyte contractility assay (fractional shortening, edge detection); type: cell-based, Sprague-Dawley rats; settings: 5 μM, adult rat myocytes, 5 min perfusion, 5 cells tested
Method: Adult male Sprague-Dawley rats were anesthetized and the hearts were quickly excised, rinsed and the ascending aorta was cannulated. Continuous retrograde perfusion was initiated on the hearts at a perfusion pressure of 60 cm H2O. Hearts were first perfused with a nominally Ca^2+-free modified Krebs solution of the following composition: 113 mM NaCl, 4.7 mM KCl, 0.6 mM KH2PO4, 0.6 mM Na2HPO4, 1.2 mM MgSO4, 12 mM NaHCO3, 10 mM KHCO3, 30 mM taurine, 5.5 mM glucose and 10 mM Hepes (all Sigma). This medium is not recirculated and is continually aerated with a 95% O2/5% CO2 mixture. […]
Aliquots of myocytes in Tyrode's buffer were placed in perfusion chambers (series 20 RC-27NE; Warner Instruments) complete with heating platforms. […] Contractility of the myocytes and contraction and relaxation velocities were then recorded using edge detection.
Five or more individual myocytes were tested per compound from two or more different myocyte preparations. […] These average transients were analyzed using the IonWizard software (IonOptix) to determine changes in diastolic length and fractional shortening. Fractional shortening was calculated as: ((resting length−length at peak contraction) divided by the resting length). The percent change in fractional shortening from baseline was calculated as: ((post-dose fractional shortening/basal fractional shortening)*100). […]

[4] = system: Rat Cardiac Contractility; test: Echocardiography assessment of acute pharmacodynamic effect in rat cardiac contractility; type: in vivo, Sprague Dawley rats
Method: Assessment of in vivo cardiac function by echocardiography was performed in male Sprague Dawley rats under isoflurane (1-3%) anesthesia. 2-D M-mode images of the left ventricle were acquired in the parasternal long-axis view before, during, and after administration of compounds by continuous IV infusion or oral gavage. In vivo fractional shortening was determined by M-mode image analysis with the following calculation: ((End diastolic diameter—end systolic diameter)/end diastolic diameter×100). For continuous IV infusion experiments, three pre-dose baseline M-mode images were taken at 1 minute intervals prior to infusion of compound. Compounds were formulated in 50% Propylene Glycol (PG): 16% Captisol: 10% dimethylacetamide (DMA) and delivered via a jugular vein catheter at the rate of 1 mL/kg/h. During infusion, M-mode images were taken at 5 minute intervals. The infusion stopped when fractional shortening reached up to a 60% reduction from baseline. Blood samples were taken to determine the plasma concentration of the compounds. Data was reported as an estimated IC50 value, which is the concentration at which fractional shortening is 50% of the pre-dose baseline contractility.
For oral dosing studies, three pre-dose baseline M-Mode images were taken at 1 minute intervals prior to compound administration. […] Rats were lightly anesthetized for M-Mode echocardiography measurements at select time points over a 24 hour period. Different dose levels were evaluated. The compound effect on cardiac fractional shortening at the highest dose evaluated is presented below as a percent reduction of baseline fractional shortening (=100%).
Concurrent with echocardiography measurements, blood samples were taken to determine the corresponding compound plasma concentration.

- relative stability of forms in competitive slurry ([1]; temperature range 2-60° C.): more stable than Form I
Structure (SMILES): CCc1nc(-c2ccc3c(c2)CC[C@H]3NC(=O)c2cnn(C)c2)no1 [Form IV, (R)-N-(5-(5-ethyl-1,2,4-oxadiazol-3-yl)-2,3-dihydro-1H-inden-1-yl)-1-methyl-1H-pyrazole-4-carboxamide]

- moisture uptake as determined by DVS [2]: 0.60 % w/w
- XRPD form after heat/humidity exposure ([3]; none, RT, 0% RH): Form I
- XRPD form after heat/humidity exposure ([3]; water vapor, 40° C., 75% RH): Form I
- XRPD form after heat/humidity exposure ([3]; water vapor, RT, 59% RH): Form I
- XRPD form after heat/humidity exposure ([3]; water vapor, RT, 75% RH): Form I
- XRPD form after heat/humidity exposure ([3]; water vapor, RT, 97% RH): Form I
Structure (SMILES): CCc1nc(-c2ccc3c(c2)CC[C@H]3NC(=O)c2cnn(C)c2)no1 [Form I, (R)-N-(5-(5-ethyl-1,2,4-oxadiazol-3-yl)-2,3-dihydro-1H-inden-1-yl)-1-methyl-1H-pyrazole-4-carboxamide]

- XRPD form after competitive slurry ([1]; ACN, 2 ° C.): Form IV
- XRPD form after competitive slurry ([1]; ACN, 25 ° C.): Form IV
- XRPD form after competitive slurry ([1]; ACN, 60 ° C.): Form IV
- XRPD form after competitive slurry ([1]; acetone, 2 ° C.): Form IV
- XRPD form after competitive slurry ([1]; acetone, 25 ° C.): Form IV
- XRPD form after competitive slurry ([1]; acetone, 60 ° C.): Form IV
Structure (SMILES): CCc1nc(-c2ccc3c(c2)CC[C@H]3NC(=O)c2cnn(C)c2)no1 [Forms I and IV, (R)-N-(5-(5-ethyl-1,2,4-oxadiazol-3-yl)-2,3-dihydro-1H-inden-1-yl)-1-methyl-1H-pyrazole-4-carboxamide]

- IC50 ([4]; continuous IV infusion, rats under isoflurane, read-out: estimated IC50 (plasma concentration at which fractional shortening is 50% of pre-dose baseline contractility), Mean±S.D.): 7.2 ± 0.2 µM
- IC50 ([4]; oral dosing studies, rat, read-out: estimated IC50 (plasma concentration, fractional shortening)): 7.9 µM
Structure (SMILES): CCc1nc(-c2ccc3c(c2)CC[C@H]3NC(=O)c2cnn(C)c2)no1 [(R)-N-(5-(5-ethyl-1,2,4-oxadiazol-3-yl)-2,3-dihydro-1H-inden-1-yl)-1-methyl-1H-pyrazole-4-carboxamide]
- % FS (% reduction from baseline) ± SEM (myocytes): 67.4 ± −5.8%
- FS (% reduction from baseline) at 1-2 h post dose (Mean ± S.D.) ([4]; 2 mg/kg single dose by oral gavage, rat, 1-2 h post dose): 43 ± 9%
- FS (% reduction from baseline) at 4 h post dose (Mean ± S.D.) ([4]; 2 mg/kg single dose by oral gavage, rat, 4 h post dose): 31 ± 9%
- estimated IC10 (plasma concentration, fractional shortening) ([4]; oral dosing studies, rat): 0.8 µM
